Measured values taken from patent US11590242B2, “Antibody-mediated autocatalytic, targeted delivery of nanocarriers to tumors” (Yale University, priority 2016, dated 2023).

Experiments:
Cal12T lung cancer cells = test: Delivery of nanoparticles into living cells (fluorescence microscopy, anti-myc immunostaining); assay type: cell-based; conditions: fixed cells
[1] = Blood concentrations of DOX-NPs with and without 3E10^EN as a function of time; assay type: in vivo, BALB/c mice; conditions: 1 mg DOX-NPs i.v., coumarin 6 co-loaded, 5 min-48 h
Experimental: Blood concentrations of DOX-NPs with and without conjugation of 3E10^EN recorded as a function of time. To enable detection of NPs, NPs were co-loaded with 1% coumarin 6. Six BALB/c mice were randomly assigned to two groups, which received intravenous administration of 1 mg DOX-NPs with and without conjugation of 3E10^EN, respectively. At 5 min, 15 min, 30 min, 1 h, 2 h, 4 h, 6 h, 24 h, 36 h and 48 h post injection, 20 uL blood sample from each mouse was collected into a 1.5 mL Eppendorf tube and lyophilized. Then, 100 uL DMSO and 1 mL acetonitrile were added to each tube. After sonication in a water bath sonicator for 15 min, samples were subjected to centrifugation at 4000 rpm for 20 min to remove cellular fragments and blood albumin. Then, 0.8 ml supernatant from each sample was collected and added to an eppendorf tube. The acetonitrile was evaporated and the dye in the DMSO was quantified at Ex/Em 444/505 nm using a plate reader (BioTek ELx800).

[2] = test system: 4T1 murine breast cancer cells; test: Cytotoxicity evaluation, MTT assay; assay type: cell-based, mouse; conditions: three days treatment, listed as Free DOX
Experimental: All chemicals were purchased from Sigma-Aldrich unless otherwise noted. The mouse mammary tumor cell line 4T1 was obtained from American Type Culture Collection (ATCC) and cultured in DMEM medium (Invitrogen) supplemented with 10% fetal bovine serum (Invitrogen), 100 units/ml penicillin and 100 ug/ml streptomycin (Invitrogen), in a 37° C. incubator containing 5% CO2.
4T1 cells were plated in a 96-well cell culture plate at a concentration of 2×10^3 per well and incubated with concentrations of nanoparticles ranging from 1.25 to 500 ug/mL. The same amounts of free DOX were added to parallel wells as controls. Three days after treatment, the effect of treatments on cell proliferation was determined using the standard MTT assay.

4T1 tumors = test: Antitumor evaluation in mouse tumor xenografts; assay type: in vivo, mice; conditions: end of study, vs PBS control, i.v. three times a week
Experimental: Mice bearing 4T1 tumors were established as described above. […] Treatment was performed 3 times per week. Nanoparticles were administered at 1 mg, equal to 80 ug DOX per mouse. Tumor sizes were measured three times a week. Mice were euthanized when tumor volume reached 1000 mm^3, at which point the tumors were excised and fixed in formalin for immunohistochemistry. Serial sections were obtained and stained with hematoxylin and eosin (H&E) and Terminal Deoxynucleotidyl Transferase (TUNEL) for analysis of therapeutic effect. The growth curve was plotted using the mean of the tumor volumes for each treatment group, at each timepoint.

Molecule | Subcellular localization of di-scFv (Cal12T lung cancer cells) | Circulation life of NPs [1] | Effect on viability of 4T1 cells [2] | Reduction of tumor volume (4T1 tumors)
3E10^EN: enhanced di-single chain variable fragment of anti-DNA antibody 3E10 with D31N mutation, SEQ ID NO:12 | penetrated into cell nuclei | did not alter the circulation life of NPs |  | 
COc1cccc2c1C(=O)c1c(O)c3c(c(O)c1C2=O)C[C@@](O)(C(=O)CO)C[C@@H]3O[C@H]1C[C@H](N)[C@H](O)[C@H](C)O1 [DOX, doxorubicin] |  |  | comparable inhibition of cells | 26%
